# Assay results reported in patent US8524654B2, “Prolyl endopeptidase inhibitors for reducing or preventing neutrophilic inflammation” (The UAB Research Foundation, priority 2007, dated 2013).
# Entries after “also recorded” stand apart in the source; their conditions may differ. Residues, ends and D or L forms follow the SMILES beside them. *: point of attachment. Cbz = O=C(OCc1ccccc1)*
# B1: HNE: Recombinant human neutrophil elastase (protein, UniProt P08246 30-267, looked up)
# Neutrophil elastase: IVGGRRARPHAWPFMVSLQLRGGHFCGATLIAPNFVMSAAHCVANVNVRAVRVVLGAHNLSRREPTRQVFAVQRIFENGYDPVNLLNDIVILQLNGSATINANVQVAQLPAQGRRLGNGVQCLAMGWGLLGRNRGIASVLQELNVTVVTSLCRRSNVCTLVRGRQAGVCFGDSGSPLVCNGLIHGIASFVRGGCASGLYPDAFAPVAQFVNWIDSIIQRSEDNPCPHPRDPDPASRTH
# Experiments:
# [1] = system: PGP production by CF sputum on type I collagen; experiment: Ex vivo collagen assay: PGP generation by pooled CF sputum with inhibitors; format: biochemical, human
# Experimental: (§1) Electrospray ionization liquid chromatography-MS/MS. (ESI-LC/MS/MS) for PGP detection PGP and N-α-PGP were measured for in vitro and sputum samples using a MDS Sciex (Applied Biosystems, Foster City, Calif.) API-4000 spectrometer equipped with a Shimadzu HPLC. HPLC was done using a 2.1×150-mm Develosi C30 column (with buffer A: 0.1% formic acid, and buffer B: acetonitrile plus 0.1% formic acid); at 0-0.6 min, 80% buffer A/20% buffer B and at 0.6-5 min, the gradient is up to 0% buffer A/100% buffer B. Background was removed by flushing with 100% isopropanol plus 0.1% formic acid. Positive electrospray mass transitions were at 270-70 and 270-116 for PGP and 312-140 and 312-112 for N-α-PGP.
# Ex vivo collagen assay. One hundred microliters of saline-diluted sputum was incubated with extensively dialyzed, intact type I or II collagen (50 μl, 1 mg/ml) for 24 h at 37° C. and 5% CO2. The samples were filtered through a 10-kDa filter, washed with 20 μl of 1 N HCl, and analyzed using ESI-LC-MS/MS for levels of PGP and N-αPGP. Amounts of PGP and N-α-PGP generated by each sputum sample were determined by subtracting basal levels already present in each sample.
# For the inhibitor experiments, these pooled sputa were treated with noted inhibitor and allowed to incubate for 6 h. At 6 h, dialyzed collagen was added to the sample and sample was further incubated for 18 h. Inhibitor concentrations used were: MMP-8, -9, and -2 at 50 μM, PE at 100 μM, and doxycycline at 1 mM.
# neutrophil = settings: in vitro; cited from earlier work
# [2] = system: PGP production in murine airways; experiment: In vivo murine intratracheal protease administration, PGP in bronchoalveolar lavage fluid; design: species or system BALB/c mice; settings: 50 μl, lavage 24 h later, ESI LC-MS/MS, vs PBS control
# Experimental: In vivo PGP production was examined using MMPs or human neutrophil elastase (HNE) with or without PE. Various proteases (50 μl) were administered intratracheally into murine (4- to 6-wk-old BALB/c mice) airways and bronchoalveolar lavage fluid was collected 24 h later. PGP levels were determined using ESI LC-MS/MS. […] Number of mice per group=6.
# as §1
# In vivo murine administration. Mice underwent intratracheal protease administration as described in FIG. 5 legend. MMPs were preactivated using 1 mM aminophenylmercuric acetate for 2 hours at 37° C. The concentrations of proteases administered were: MMP-8, MMP-9, and MMP-12: 55.6 μg/kg; HNE: 200 μg/kg; and PE: 18.4 mg/kg. […]
molecule,measurement,setting,value
"CC(C)(C)C(=O)Oc1ccc(S(=O)(=O)Nc2ccccc2C(=O)NCC(=O)O)cc1 [HNE-specific inhibitor, N-(2-(4-(2,2-dimethylpropionyloxy)phenylsulfonylamino)benzoyl)aminoacetic acid N-(o-(p-pivaloyloxybenzene)sulfonylaminobenzoyl) glycine]",inhibition of PGP production compared with CF sputum alone,"[1]; HNE inhibitor, concentration not given, pooled CF sputum, type I collagen",minimal effects; also recorded: Neither MMP-2-nor HNE-specific inhibitors resulted in significant changes
"CCCCCCCC/C=C\CCCCCCCC(=O)NO [MMP-2-specific inhibitor, cis-9-octadecenoyl-N-hydroxylamide]",inhibition of PGP production compared with CF sputum alone,"[1]; MMP-8, -9, -2 inhibitors at 50 μM, 6 h with pooled CF sputum, then type I collagen, 50 µM",minimal effects; also recorded: Neither MMP-2-nor HNE-specific inhibitors resulted in significant changes
"O=CC1CCCN1C(=O)C1CCCN1C(=O)OCc1ccccc1 (stereo not drawn) [PE inhibitor, Z-prolyl prolinal] (Cbz-Pro-Pro-aldehyde; configuration not given here)",inhibition of PGP production compared with CF sputum alone,"[1]; PE inhibitor at 100 μM, 6 h with pooled CF sputum, then type I collagen, 100 µM",completely blocked; also recorded: complete blockade
proline-glycine-proline [PGP],potency as neutrophil chemoattractant relative to N-α-PGP,neutrophil,four to seven times less potent
B1,PGP production in bronchoalveolar lavage fluid,[2],did not generate PGP
